The values that follow come from patent publication US9499550B2 (BRISTOL-MYERS SQUIBB COMPANY, priority 2012, dated 2016).

pEC50: −log10 of the molar value.

In general, pEC50 refers to the EC50 on a negative log10 scale, so that one unit is a factor of ten.

For experiment [1], the system named is HCV genotype 1a (H77 strain) replicon in HUH-7 cells. Kind of experiment: HCV replicon luciferase reporter assay, genotype 1a. It is filed as cell-based. As to conditions: Hepatitis C virus, Huh-7, 72 h, HCV genotype 1a replicon luciferase assay, 3 days incubation, range class, read-out: LE_1a (EC50, range). A digest of the protocol: (§1)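 Replicon inhibition for both genotypes was measured as Renilla luciferase signal (EnduRen, 7.5 μM final, 2 h) after 3-day, 37° C exposure of replicon-bearing HUH-7 cells in 4% FCS DMEM, 0.5% DMSO. The 1b construct carries S1179I; the 1a H77 construct carries P1496L and S2204I. Twenty-point, 3-fold dilutions were fitted four-parametrically for EC50, and CC50 was taken from multiplexed Cell Titer-Blue.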
(A replicon is a self-replicating genome or part of one, used to study replication in cells.)

In experiment [2] the test system is HCV genotype 1b (Con1) replicon in HUH-7 cells. Kind of experiment: HCV replicon luciferase reporter assay, genotype 1b. It is filed as cell-based. As to conditions: Hepatitis C virus, Huh-7, 72 h, HCV genotype 1b replicon luciferase assay, 3 days incubation, range class, read-out: LE_1b (EC50, range). The essentials: as §1

With `COc1ccc2c(O[C@@H]3C[C@H]4C(=O)N[C@]5(C(=O)NS(=O)(=O)C6(C)CC6)C[C@H]5/C=C\CC[C@H](C)C[C@@H](C)[C@H](NC(=O)O[C@@H]5C[C@@H]6C[C@@H]6C5)C(=O)N4C3)nc(-c3ccc(F)cc3)cc2c1` [Compound 3086, (1R,3r,5S)-bicyclo[3.1.0]hexan-3-yl((2R,6S,7R,9S,13aS,14aR,16aS,Z)-2-((3-(4-fluorophenyl)-6-methoxyisoquinolin-1-yl)oxy)-7,9-dimethyl-14a-(((1-methylcyclopropyl)sulfonyl)carbamoyl)-5,16-dioxo-1,2,3,5,6,7,8,9,10,11,13a,14,14a,15,16,16a-hexadecahydrocyclopropa[e]pyrrolo[1,2-a][1,4]diazacyclopentadecin-6-yl)carbamate], the pEC50 in experiment [1] and in experiment [2] was above 8.26 in each case.
Take `COc1ccc2c(O[C@@H]3C[C@H]4C(=O)N[C@]5(C(=O)NS(=O)(=O)C6(C)CC6)C[C@H]5/C=C\CC[C@@H](C)C[C@@H](C)[C@H](NC(=O)O[C@@H]5C[C@@H]6C[C@@H]6C5)C(=O)N4C3)nc(-c3ccc(F)cc3)cc2c1` [Compound 3087, (1R,3r,5S)-bicyclo[3.1.0]hexan-3-yl((2R,6S,7R,9R,13aS,14aR,16aS,Z)-2-((3-(4-fluorophenyl)-6-methoxyisoquinolin-1-yl)oxy)-7,9-dimethyl-14a-(((1-methylcyclopropyl)sulfonyl)carbamoyl)-5,16-dioxo-1,2,3,5,6,7,8,9,10,11,13a,14,14a,15,16,16a-hexadecahydrocyclopropa[e]pyrrolo[1,2-a][1,4]diazacyclopentadecin-6-yl)carbamate]: the pEC50 in experiment [1] and in experiment [2] was above 8.26 throughout.
`COc1ccc2c(O[C@@H]3C[C@H]4C(=O)N[C@]5(C(=O)NS(=O)(=O)C6(C)CC6)C[C@H]5/C=C\CC[C@H](C)C[C@@H](C)[C@H](NC(=O)OC(C)(C)C)C(=O)N4C3)nc(N3CCOCC3)cc2c1` [Compound 3088, tert-butyl ((2R,6S,7R,9S,13aS,14aR,16aS,Z)-2-((6-methoxy-3-morpholinoisoquinolin-1-yl)oxy)-7,9-dimethyl-14a-(((1-methylcyclopropyl)sulfonyl)carbamoyl)-5,16-dioxo-1,2,3,5,6,7,8,9,10,11,13a,14,14a,15,16,16a-hexadecahydrocyclopropa[e]pyrrolo[1,2-a][1,4]diazacyclopentadecin-6-yl)carbamate]: the negative-log EC50 (pEC50) in experiment [1] and in experiment [2] was above 8.26 throughout.
Consider `COc1ccc2c(O[C@@H]3C[C@H]4C(=O)N[C@]5(C(=O)NS(=O)(=O)C6(C)CC6)C[C@H]5/C=C\CC[C@@H](C)C[C@@H](C)[C@H](NC(=O)OC(C)(C)C)C(=O)N4C3)nc(N3CCOCC3)cc2c1` [Compound 3089, tert-butyl ((2R,6S,7R,9R,13aS,14aR,16aS,Z)-2-((6-methoxy-3-morpholinoisoquinolin-1-yl)oxy)-7,9-dimethyl-14a-(((1-methylcyclopropyl)sulfonyl)carbamoyl)-5,16-dioxo-1,2,3,5,6,7,8,9,10,11,13a,14,14a,15,16,16a-hexadecahydrocyclopropa[e]pyrrolo[1,2-a][1,4]diazacyclopentadecin-6-yl)carbamate], for which the pEC50 in experiment [1] and in experiment [2] was above 8.26 in each case.
On to `COc1ccc2c(O[C@@H]3C[C@H]4C(=O)N[C@]5(C(=O)NS(=O)(=O)C6(C)CC6)C[C@H]5/C=C\CC[C@H](C)C[C@@H](C)[C@H](NC(=O)OCC5(C)CC5)C(=O)N4C3)nc(N3CCOCC3)cc2c1` [Compound 3090, (1-methylcyclopropyl)methyl ((2R,6S,7R,9S,13aS,14aR,16aS,Z)-2-((6-methoxy-3-morpholinoisoquinolin-1-yl)oxy)-7,9-dimethyl-14a-(((1-methylcyclopropyl)sulfonyl)carbamoyl)-5,16-dioxo-1,2,3,5,6,7,8,9,10,11,13a,14,14a,15,16,16a-hexadecahydrocyclopropa[e]pyrrolo[1,2-a][1,4]diazacyclopentadecin-6-yl)carbamate], for which the pEC50 was 6.99 to 8.32 in experiment [1] and above 8.26 in experiment [2].
Turning to `COc1ccc2c(O[C@@H]3C[C@H]4C(=O)N[C@]5(C(=O)NS(=O)(=O)C6(C)CC6)C[C@H]5/C=C\CC[C@@H](C)C[C@@H](C)[C@H](NC(=O)OCC5(C)CC5)C(=O)N4C3)nc(N3CCOCC3)cc2c1` [Compound 3091, (1-methylcyclopropyl)methyl ((2R,6S,7R,9R,13aS,14aR,16aS,Z)-2-((6-methoxy-3-morpholinoisoquinolin-1-yl)oxy)-7,9-dimethyl-14a-(((1-methylcyclopropyl)sulfonyl)carbamoyl)-5,16-dioxo-1,2,3,5,6,7,8,9,10,11,13a,14,14a,15,16,16a-hexadecahydrocyclopropa[e]pyrrolo[1,2-a][1,4]diazacyclopentadecin-6-yl)carbamate], the negative-log EC50 (pEC50) in experiment [1] and in experiment [2] was above 8.26 each time.
Consider `COc1ccc2c(O[C@@H]3C[C@H]4C(=O)N[C@]5(C(=O)NS(=O)(=O)C6(C)CC6)C[C@H]5/C=C\CC[C@H](C)C[C@@H](C)[C@H](NC(=O)O[C@H](C)C(F)(F)F)C(=O)N4C3)nc(N3CCOCC3)cc2c1` [Compound 3092, (R)-1,1,1-trifluoropropan-2-yl ((2R,6S,7R,9S,13aS,14aR,16aS,Z)-2-((6-methoxy-3-morpholinoisoquinolin-1-yl)oxy)-7,9-dimethyl-14a-(((1-methylcyclopropyl)sulfonyl)carbamoyl)-5,16-dioxo-1,2,3,5,6,7,8,9,10,11,13a,14,14a,15,16,16a-hexadecahydrocyclopropa[e]pyrrolo[1,2-a][1,4]diazacyclopentadecin-6-yl)carbamate], for which the negative-log EC50 (pEC50) in experiment [1] and in experiment [2] was above 8.26 throughout.
As to `COc1ccc2c(O[C@@H]3C[C@H]4C(=O)N[C@]5(C(=O)NS(=O)(=O)C6(C)CC6)C[C@H]5/C=C\CC[C@@H](C)C[C@@H](C)[C@H](NC(=O)O[C@H](C)C(F)(F)F)C(=O)N4C3)nc(N3CCOCC3)cc2c1` [Compound 3093, (R)-1,1,1-trifluoropropan-2-yl ((2R,6S,7R,9R,13aS,14aR,16aS,Z)-2-((6-methoxy-3-morpholinoisoquinolin-1-yl)oxy)-7,9-dimethyl-14a-(((1-methylcyclopropyl)sulfonyl)carbamoyl)-5,16-dioxo-1,2,3,5,6,7,8,9,10,11,13a,14,14a,15,16,16a-hexadecahydrocyclopropa[e]pyrrolo[1,2-a][1,4]diazacyclopentadecin-6-yl)carbamate], the negative logarithm of the EC50 (pEC50) in experiment [1] and in experiment [2] was above 8.26 throughout.
On to `COc1ccc2c(O[C@@H]3C[C@H]4C(=O)N[C@]5(C(=O)NS(=O)(=O)C6(C)CC6)C[C@H]5/C=C\CC[C@H](C)C[C@@H](C)[C@H](NC(=O)OC(C)(C)C(F)(F)F)C(=O)N4C3)nc(N3CCOCC3)cc2c1` [Compound 3094, 1,1,1-trifluoro-2-methylpropan-2-yl((2R,6S,7R,9S,13aS,14aR,16aS,Z)-2-((6-methoxy-3-morpholinoisoquinolin-1-yl)oxy)-7,9-dimethyl-14a-(((1-methylcyclopropyl)sulfonyl)carbamoyl)-5,16-dioxo-1,2,3,5,6,7,8,9,10,11,13a,14,14a,15,16,16a-hexadecahydrocyclopropa[e]pyrrolo[1,2-a][1,4]diazacyclopentadecin-6-yl)carbamate], for which the negative-log EC50 (pEC50) in experiment [1] is 6.99 to 8.32; in experiment [2], above 8.26.
`COc1ccc2c(O[C@@H]3C[C@H]4C(=O)N[C@]5(C(=O)NS(=O)(=O)C6(C)CC6)C[C@H]5/C=C\CC[C@@H](C)C[C@@H](C)[C@H](NC(=O)OC(C)(C)C(F)(F)F)C(=O)N4C3)nc(N3CCOCC3)cc2c1` [Compound 3095, 1,1,1-trifluoro-2-methylpropan-2-yl((2R,6S,7R,9R,13aS,14aR,16aS,Z)-2-((6-methoxy-3-morpholinoisoquinolin-1-yl)oxy)-7,9-dimethyl-14a-(((1-methylcyclopropyl)sulfonyl)carbamoyl)-5,16-dioxo-1,2,3,5,6,7,8,9,10,11,13a,14,14a,15,16,16a-hexadecahydrocyclopropa[e]pyrrolo[1,2-a][1,4]diazacyclopentadecin-6-yl)carbamate]: the pEC50 in experiment [1] and in experiment [2] was above 8.26 each time.
Consider `COc1ccc2c(O[C@@H]3C[C@H]4C(=O)N[C@]5(C(=O)NS(=O)(=O)C6(C)CC6)C[C@H]5/C=C\CC[C@H](C)C[C@@H](C)[C@H](NC(=O)O[C@@H]5C[C@@H]6C[C@@H]6C5)C(=O)N4C3)nc(N3CCOCC3)cc2c1` [Compound 3096, (1R,3r,5S)-bicyclo[3.1.0]hexan-3-yl((2R,6S,7R,9S,13aS,14aR,16aS,Z)-2-((6-methoxy-3-morpholinoisoquinolin-1-yl)oxy)-7,9-dimethyl-14a-(((1-methylcyclopropyl)sulfonyl)carbamoyl)-5,16-dioxo-1,2,3,5,6,7,8,9,10,11,13a,14,14a,15,16,16a-hexadecahydrocyclopropa[e]pyrrolo[1,2-a][1,4]diazacyclopentadecin-6-yl)carbamate], for which the pEC50 in experiment [1] was 6.99 to 8.32; in experiment [2] it was above 8.26.
Regarding `COc1ccc2c(O[C@@H]3C[C@H]4C(=O)N[C@]5(C(=O)NS(=O)(=O)C6(C)CC6)C[C@H]5/C=C\CC[C@@H](C)C[C@@H](C)[C@H](NC(=O)O[C@@H]5C[C@@H]6C[C@@H]6C5)C(=O)N4C3)nc(N3CCOCC3)cc2c1` [Compound 3097, (1R,3r,5S)-bicyclo[3.1.0]hexan-3-yl((2R,6S,7R,9R,13aS,14aR,16aS,Z)-2-((6-methoxy-3-morpholinoisoquinolin-1-yl)oxy)-7,9-dimethyl-14a-(((1-methylcyclopropyl)sulfonyl)carbamoyl)-5,16-dioxo-1,2,3,5,6,7,8,9,10,11,13a,14,14a,15,16,16a-hexadecahydrocyclopropa[e]pyrrolo[1,2-a][1,4]diazacyclopentadecin-6-yl)carbamate], the negative logarithm of the EC50 (pEC50) in experiment [1] and in experiment [2] was above 8.26 throughout.
